Test results: patent publication US9034886B2, “4-aminoquinazoline derivatives and uses thereof” (Shanghai Institute of Pharmaceutical Industry, priority 2011, dated 2015)

Experiments:
[1] = test system: PANC-1 human pancreatic cancer cells; assay: In vitro anti-proliferative effect, CCK-8 method, PANC-1; assay type: cell-based; conditions: Homo sapiens, PANC-1
Method in brief: (§1)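 Two-point screen, 100 μM and 10 μM; CCK-8 colorimetric read-out gives % growth inhibition.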

[2] = test system: MDA-MB-435s human breast cancer cells; assay: In vitro anti-proliferative effect, CCK-8 method, MDA-MB-435s; assay type: cell-based; conditions: Homo sapiens, MDA-MB-435S
Method in brief: as §1

[3] = test system: A549 human lung cancer cells; assay: In vitro anti-proliferative effect, CCK-8 method, A549; assay type: cell-based; conditions: Homo sapiens, A549
Method in brief: as §1

[4] = test system: PC-3 human prostate cancer; assay: In vitro anti-proliferative effect, CCK-8 method, PC-3; assay type: cell-based; conditions: Homo sapiens, PC-3 cell strain, CCK-8 method; for inhibition at 10 µM: compound at 10 μM; for inhibition at 100 µM: compound at 100 μM
Method in brief: as §1

HDACs = assay: In vitro inhibition of HDACs (HDAC Inhibitor Drug Screening Kit, Biovision K340-100); assay type: biochemical
Experimental: The in vitro inhibitory activities of the compounds towards HDACs were tested according to the instructions in the HDAC Inhibitor Drug Screening Kit (Biovision/Catalog #K340-100).
(1) The compounds to be tested were each individually prepared as 2 mM, 200 μM and 40 μM solutions and their inhibitory activities at these concentrations were tested.

[5] = test system: Jurkat E6-1 human T-cell lymphoma; assay: In vitro anti-proliferative effect, CCK-8 method, Jurkat E6-1; assay type: cell-based; conditions: Homo sapiens, Jurkat E6.1
Method in brief: as §1

[6] = test system: Hut78 T lymphocytic leukemia cells; assay: In vitro anti-proliferative effect, CCK-8 method, Hut78; assay type: cell-based; conditions: Homo sapiens, HuT78, read-out: Hut-78 (inhibition %)
Method in brief: (§2)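 K562 and Hut78 cells exposed to compounds at 100 μM and 10 μM. Percent inhibition of proliferation determined by CCK-8 read-out.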

[7] = test system: Colo320 human colorectal cancer cell lines; assay: In vitro anti-proliferative effect, CCK-8 method, Colo320; assay type: cell-based; conditions: Homo sapiens, COLO 320, Colo320 cell strain, CCK-8 method; for inhibition at 10 µM: compound at 10 μM; for inhibition at 100 µM: compound at 100 μM
Method in brief: as §1

[8] = Maximum tolerance dose through intragastrical administration; assay type: in vivo; conditions: mice, administrated intragastrically
Method in brief: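 ICR mice (8˜20 g, both sexes, 10 per group) fasted 6 h, then dosed once intragastrically at 0.3 ml/10 g. Physical signs and deaths recorded at 1, 2 and 4 h, then daily with body weight over 14 days; dead animals necropsied with pathology on suspicious organs.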

HDAC1 = HDAC1 (Homo sapiens (Human), UniProt Q13547); assay: In vitro inhibition of subtype HDAC1 (HDAC1 Inhibitor Drug Screening Kit, Biovision); assay type: biochemical; conditions: for inhibition at 1 µM / inhibition at 10 µM: read-out: % Inhibition towards HDAC1; for inhibitory activity against HDAC1 compared with MS-275: both concentrations 10 μM and 1 μM
Chain of HDAC1 (Q13547 whole entry): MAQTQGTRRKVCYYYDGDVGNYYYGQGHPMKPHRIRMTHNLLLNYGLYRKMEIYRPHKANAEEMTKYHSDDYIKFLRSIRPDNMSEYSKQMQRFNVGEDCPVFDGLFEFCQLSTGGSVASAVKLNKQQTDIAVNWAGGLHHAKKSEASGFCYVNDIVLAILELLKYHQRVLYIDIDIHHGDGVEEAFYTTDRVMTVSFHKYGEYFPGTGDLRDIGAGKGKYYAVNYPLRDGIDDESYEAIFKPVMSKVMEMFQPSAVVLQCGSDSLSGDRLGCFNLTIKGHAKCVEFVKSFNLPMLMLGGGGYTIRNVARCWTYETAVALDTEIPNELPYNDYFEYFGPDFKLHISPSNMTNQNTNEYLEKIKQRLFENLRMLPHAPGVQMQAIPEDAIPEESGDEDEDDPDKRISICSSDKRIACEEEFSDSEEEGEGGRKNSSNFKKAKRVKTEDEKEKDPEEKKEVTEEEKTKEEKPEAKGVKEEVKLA
Experimental: The in vitro inhibitory activities of the compounds towards the subtype HDAC1 were tested according to the instructions in the HDAC1 Inhibitor Drug Screening Kit (Biovision).
(1) The compounds to be tested were each individually prepared as 10 μM and 1 μM solutions and their inhibitory activities at these concentrations were tested.
Each dilution sample was placed in two wells and the enzyme inhibition IC50 of the compound was tested.

[9] = test system: Hep3B2.1-7 human liver cancer cells; assay: In vitro anti-proliferative effect, CCK-8 method, Hep3B; assay type: cell-based; conditions: Homo sapiens, Hep3B cell strain, CCK-8 method; for inhibition at 10 µM: compound at 10 μM; for inhibition at 100 µM: compound at 100 μM
Method in brief: as §1

[10] = test system: K562 human chronic myelogenous leukemia cells; assay: In vitro anti-proliferative effect, CCK-8 method, K562; assay type: cell-based; conditions: Homo sapiens, K562
Method in brief: as §2

Row | Compound | inhibition at 10 µM [1] [%] | inhibition at 100 µM [1] [%] | inhibition at 10 µM [2] [%] | inhibition at 100 µM [2] [%] | inhibition at 10 µM [3] [%] | inhibition at 100 µM [3] [%] | inhibition at 10 µM [4] [%] | inhibition at 100 µM [4] [%] | Inhibition percentage (%) towards HDACs (HDACs; 40 μM) [%] | Inhibition percentage (%) towards HDACs (HDACs; 200 μM) [%] | Inhibition percentage (%) towards HDACs (HDACs; 2 mM) [%] | inhibition at 10 µM [5] [%] | inhibition at 100 µM [5] [%] | inhibition at 10 µM [6] [%] | inhibition at 100 µM [6] [%] | inhibition at 10 µM [7] [%] | inhibition at 100 µM [7] [%] | maximum tolerance dose [8] | inhibition at 1 µM (HDAC1) [%] | inhibition at 10 µM (HDAC1) [%] | also measured
1 | COC(=O)Cc1ccc2ncnc(Nc3ccc(C(=O)Nc4ccccc4N)cc3)c2c1 [Compound V-22, N-(2-aminophenyl)-4-(6-methoxycarbonylmethylquinazoline-4-amino)benzamide] | 12.3 | 39.4 | 18 | 81.4 | 21.8 | 69.9 | 44.6 | 69 | 19.9 | 47.5 | 84.2 | 83.1 | 88.2 | 42.3 | 91.8 | 5.4 | 40.8 | over 2000 mg/kg | 23.1 | 63 | inhibition at 10 µM [9]: 38.3%; inhibition at 100 µM [9]: 69.2%; inhibition at 10 µM [10]: 60.9%; inhibition at 100 µM [10]: 83.4%
2 | Nc1ccc(F)cc1NC(=O)c1ccc(CNc2ncnc3ccccc23)cc1 [Compound V-29, N-(2-amino-5-fluorophenyl)-4-[(quinazoline-4-amino)methyl]benzamide] | 0.9 | 18.4 | 10.1 | 78.5 | 6.3 | 69.8 | 88 | 94.5 | 8.6 | 31.0 | 37.8 | 51.5 | 96.2 | 79.4 | 94 | -7.2 | 35.5 | over 5000 mg/kg | 41.4 | 63.2 | IC50 (HDAC1): 517 nM; inhibition at 10 µM [9]: 22.5%; inhibition at 100 µM [9]: 60.5%; inhibition at 10 µM [10]: 57.4%; inhibition at 100 µM [10]: 83.8%
3 | COc1cc2ncnc(Nc3ccc(C(=O)Nc4cc(-c5ccccc5)ccc4N)cc3)c2cc1OC [Compound V-24, N-[2-amino-5-(phenyl)phenyl]-4-(6,7-dimethoxyquinazoline-4-amino)benzamide] | 17.5 | 22.1 | -10.8 | 24.5 | 7.3 | 20.8 | 13.1 | 63.7 | 24.2 | 55.2 | 76.1 | 30.7 | 91.4 | 15.5 | 72.9 | -1.7 | 16.5 | over 2000 mg/kg | 51 | 73.3 | inhibitory activity against HDAC1 compared with MS-275 (HDAC1): superior to that of MS-275; inhibition at 10 µM [9]: 14.3%; inhibition at 100 µM [9]: 69.5%; inhibition at 10 µM [10]: -1.7%; inhibition at 100 µM [10]: 75.3%
4 | Nc1ccccc1NC(=O)c1ccc(Nc2ncnc3ccc([N+](=O)[O-])cc23)cc1 [Compound V-11, N-(2-aminophenyl)-4-(6-nitroquinazoline-4-amino)benzamide] | 24 | 21.1 | 30.6 | 42.4 | 15.3 | 12.9 | 21.9 | 18.8 | 4.1 | 11.1 | 49.0 | 18.6 | 26.3 | 28.5 | 84.6 | 2.6 | 4.1 | over 2000 mg/kg | 26.2 | 33.4 | IC50 (HDACs): 3110 nM; inhibitory activity according to in vitro IC50 value against HDACs compared with MS-275 (HDACs): better inhibitory activities than MS-275; inhibition at 10 µM [9]: 22.3%; inhibition at 100 µM [9]: 43%; inhibition at 10 µM [10]: 20.4%; inhibition at 100 µM [10]: 32.3%
5 | Nc1ccccc1NC(=O)c1ccc(Nc2ncnc3cc(F)ccc23)cc1 [Compound V-13, N-(2-aminophenyl)-4-(7-fluoroquinazoline-4-amino)benzamide] | 26 | 36.8 | 27.5 | 89.1 | 18.3 | 57.1 | -1.9 | 48.5 | 1.0 | 20.1 | 50.0 | 19.1 | 77.8 | 19.8 | 54 | 0.9 | 34.3 | over 5000 mg/kg | 53.1 | 83 | IC50 (HDACs): 1140 nM; inhibitory activity against HDAC1 compared with MS-275 (HDAC1): superior to that of MS-275; inhibition at 10 µM [9]: 21.5%; inhibition at 100 µM [9]: 69.8%; inhibition at 10 µM [10]: 25%; inhibition at 100 µM [10]: 65.1%
